This note sets out measurements from patent publication EP4670722A1, “PROPHYLACTIC OR AMELIORATING AGENT FOR CELL AGING” (Kyowa Pharma Chemical Co., Ltd., priority 2023, dated 2024).

Type in all cases: cell-based
For assay [1], the system named is GLS1. The assay is described as follows: GLS1 expression analysis (ELISA) in Gin-1. Particulars: human gingival fibroblasts (Gin-1), 50 µg/mL to 1000 µg/mL, 24 hours; effect increased as content increased; Fig. 12. On the procedure: Human gingival fibroblasts (Gin-1) were cultured in DMEM containing 10% FBS. The cultured cells were collected by trypsin treatment. Cells in a state where GLS1 was expressed without addition of the test sample were used for the test. Cells collected by trypsin treatment were seeded in a 6-well plate, and when they reached 80% confluence, DMEM containing the test sample (2'-FL and lactose) at 50 µg/mL, 200 µg/mL, or 1000 µg/mL was added, and cultured for 24 hours in a 37°C, 5% CO2 incubator. The culture supernatant was removed, the cells were washed twice with PBS, and 0.20 mL of RIPA buffer was added to extract total protein. Protein in each protein extract was quantified by the Bradford assay.
Protein extracts were collected in the same manner as in [Example 10-1 B. Human gastric undifferentiated carcinoma cells (KKLS)], [Example 10-1 C. Mouse microglial cells (BV2)], [Example 10-1 D. Human gingival fibroblasts (Gin-1)], and [Example 10-1 E. Human umbilical vein endothelial cells (HUVEC)], respectively, except that a medium same as the above-mentioned medium but not containing the test sample was used instead of the medium containing the test sample, and protein in each protein extract was quantified by the Bradford assay.
An ELISA method was performed using an antibody against GLS1 to measure the amount of GLS1 in the samples. […]
In general terms: An ELISA detects its analyte on a solid surface through an enzyme-linked reagent.

The subject of assay [2] is Human normal dermal fibroblasts (NB1RGB) with a PDL of 30 or less. The assay is described as follows: Cell proliferation rate (MTT) of normal dermal fibroblasts. To be noted: 50 µg/mL to 200 µg/mL, 2 days, activity increased as content increased, Fig. 2. As to the method:
Human normal dermal fibroblasts (NB1RGB) with a PDL of 30 or less and human senescent dermal fibroblasts (NB1RGB) with a PDL of 50 or more were each cultured using DMEM containing 10% FBS. The cultured cells were collected by trypsin treatment. The collected cells were seeded in a 96-well microplate at a concentration of 5.0 x 10^3 cells/well and cultured overnight. Thereafter, the cells were cultured for 2 days at 37°C in a medium for fibroblast proliferation (FBS-free) to which a test sample (sucrose or 2'-fucosyllactose) was added to a concentration of 50 µg/mL, 100 µg/mL,or 200 µg/mL. The medium was replaced with FBS-free DMEM medium, then 10 µL/well of 5 mg/mL 3-[4,5-dimethylthiazol-2-yl]-2,5-diphenyltetrazolium bromide (MTT) was added, and the cells were cultured at 37°C for 3 hours. […] After extraction, the absorbance of formazan (As, 492 nm) was measured with a microplate reader. […]
Human normal dermal fibroblasts with a PDL of 30 or less and human senescent fibroblasts with a PDL of 50 or more were each cultured and the absorbance of formazan was measured in the same manner as in Example 2-1, except that no test sample was added. The obtained absorbance was designated as Ab, and the cell proliferation rate represented by the above formula (1) was determined for each case of PDL of 30 or less and PDL of 50 or more.

In assay [3] the test system is GLS1. The assay is described as follows: GLS1 expression analysis (ELISA) in HUVEC after high glucose treatment. Particulars: human umbilical vein endothelial cells (HUVEC), 50 µg/mL to 1000 µg/mL, 24 hours; effect increased as content increased; Fig. 12. On the procedure:
Human umbilical vein endothelial cells (HUVEC) were cultured in DMEM + 10% FBS + 5 mM glucose (normal medium). The cultured cells were collected by trypsin treatment. The collected cells were seeded in a 10 cm dish and cultured for 24 hours in a 37°C, 5% CO2 incubator. Thereafter, a treatment of exposing the cells to DMEM + 10% FBS + 30 mM glucose (high glucose medium) for 10 hours and to normal medium for 14 hours was performed for 7 days. After 7 days, normal medium containing the test sample (2'-FL and lactose) at 50 µg/mL, 200 µg/mL, or 1000 µg/mL was added, and cultured for 24 hours in a 37°C, 5% CO2 incubator. The culture supernatant was removed, the cells were washed twice with PBS, and 0.20 mL of RIPA buffer was added to extract total protein. Protein in each protein extract was quantified by the Bradford assay.
Protein extracts were collected in the same manner as in [Example 10-1 B. Human gastric undifferentiated carcinoma cells (KKLS)], [Example 10-1 C. Mouse microglial cells (BV2)], [Example 10-1 D. Human gingival fibroblasts (Gin-1)], and [Example 10-1 E. Human umbilical vein endothelial cells (HUVEC)], respectively, except that a medium same as the above-mentioned medium but not containing the test sample was used instead of the medium containing the test sample, and protein in each protein extract was quantified by the Bradford assay. […]

In the case of `C[C@@H]1O[C@@H](O[C@H]2[C@H](O[C@H]3[C@H](O)[C@@H](O)C(O)O[C@@H]3CO)O[C@H](CO)[C@H](O)[C@@H]2O)[C@@H](O)[C@H](O)[C@@H]1O` (stereo partly drawn) [2'-FL, 2'-fucosyllactose], the GLS1 expression entry in the assay on GLS1 [1] and in the assay with GLS1 [3] was “suppressed GLS1 expression” each time. In assay [2], the “proliferation activity of normal fibroblasts (cell proliferation rate)” value was “improved the proliferation activity of normal fibroblasts”.
